According to patent publication US20040102622A1, “Modulation of hepatocyte growth factor receptor expression” (Isis Pharmaceuticals Inc., priority 2002, published 2004):

Tested on: human hepatocyte growth factor receptor mRNA

Substance | inhibition of human hepatocyte growth factor receptor expression
ISIS 209544: 2′-MOE gapmer, phosphorothioate backbone, sequence taatagtgcaattttggcaa (antisense TAATAGTGCAATTTTGGCAA; all phosphorothioate, sugars by position and methylation of C not given here; 2'-MOE gapmer) | at least 35%
ISIS 155101: 2′-MOE gapmer, phosphorothioate backbone, sequence ttcagccacaggaaaaaccc (antisense TTCAGCCACAGGAAAAACCC; all phosphorothioate, sugars by position and methylation of C not given here; 2'-MOE gapmer) | at least 35%
ISIS 155113: 2′-MOE gapmer, phosphorothioate backbone, sequence ctaatgagttgatcatcata (antisense CTAATGAGTTGATCATCATA; all phosphorothioate, sugars by position and methylation of C not given here; 2'-MOE gapmer) | at least 35%
ISIS 155098: 2′-MOE gapmer, phosphorothioate backbone, sequence tcagaagtgtcctattaaag (antisense TCAGAAGTGTCCTATTAAAG; all phosphorothioate, sugars by position and methylation of C not given here; 2'-MOE gapmer) | at least 35%
ISIS 155130: 2′-MOE gapmer, phosphorothioate backbone, sequence tctctgaactcaggtaaaac (antisense TCTCTGAACTCAGGTAAAAC; all phosphorothioate, sugars by position and methylation of C not given here; 2'-MOE gapmer) | at least 35%
ISIS 155118: 2′-MOE gapmer, phosphorothioate backbone, sequence catccagcatacagtttctt (antisense CATCCAGCATACAGTTTCTT; all phosphorothioate, sugars by position and methylation of C not given here; 2'-MOE gapmer) | at least 35%
ISIS 155104: 2′-MOE gapmer, phosphorothioate backbone, sequence atgcaatggatgatctggga (antisense ATGCAATGGATGATCTGGGA; all phosphorothioate, sugars by position and methylation of C not given here; 2'-MOE gapmer) | at least 35%
ISIS 155119: 2′-MOE gapmer, phosphorothioate backbone, sequence aagtatattaaacacttcct (antisense AAGTATATTAAACACTTCCT; all phosphorothioate, sugars by position and methylation of C not given here; 2'-MOE gapmer) | at least 35%
ISIS 209522: 2′-MOE gapmer, phosphorothioate backbone, sequence agaggtttatctttcggtgc (antisense AGAGGTTTATCTTTCGGTGC; all phosphorothioate, sugars by position and methylation of C not given here; 2'-MOE gapmer) | at least 35%
ISIS 209549: 2′-MOE gapmer, phosphorothioate backbone, sequence cctgagcattactatctctt (antisense CCTGAGCATTACTATCTCTT; all phosphorothioate, sugars by position and methylation of C not given here; 2'-MOE gapmer) | at least 35%
ISIS 155103: 2′-MOE gapmer, phosphorothioate backbone, sequence tgggaagctgatacttcata (antisense TGGGAAGCTGATACTTCATA; all phosphorothioate, sugars by position and methylation of C not given here; 2'-MOE gapmer) | at least 35%
ISIS 209535: 2′-MOE gapmer, phosphorothioate backbone, sequence ataacaatacaagtcctatg (antisense ATAACAATACAAGTCCTATG; all phosphorothioate, sugars by position and methylation of C not given here; 2'-MOE gapmer) | at least 35%
ISIS 155122: 2′-MOE gapmer, phosphorothioate backbone, sequence aagcctatccaaatgaggag (antisense AAGCCTATCCAAATGAGGAG; all phosphorothioate, sugars by position and methylation of C not given here; 2'-MOE gapmer) | at least 35%
ISIS 155109: 2′-MOE gapmer, phosphorothioate backbone, sequence agctcgctgttcaatttcag (antisense AGCTCGCTGTTCAATTTCAG; all phosphorothioate, sugars by position and methylation of C not given here; 2'-MOE gapmer) | at least 35%
ISIS 155129: 2′-MOE gapmer, phosphorothioate backbone, sequence gattgggtccgtaaaaatgc (antisense GATTGGGTCCGTAAAAATGC; all phosphorothioate, sugars by position and methylation of C not given here; 2'-MOE gapmer) | at least 35%
ISIS 155099: 2′-MOE gapmer, phosphorothioate backbone, sequence caggtttttcccaacacctg (antisense CAGGTTTTTCCCAACACCTG; all phosphorothioate, sugars by position and methylation of C not given here; 2'-MOE gapmer) | at least 35%
ISIS 155106: 2′-MOE gapmer, phosphorothioate backbone, sequence cacaacctgcatgaagcgac (antisense CACAACCTGCATGAAGCGAC; all phosphorothioate, sugars by position and methylation of C not given here; 2'-MOE gapmer) | at least 35%
ISIS 209527: 2′-MOE gapmer, phosphorothioate backbone, sequence cgcttcacagcctgatgaat (antisense CGCTTCACAGCCTGATGAAT; all phosphorothioate, sugars by position and methylation of C not given here; 2'-MOE gapmer) | at least 35%
ISIS 209528: 2′-MOE gapmer, phosphorothioate backbone, sequence ttgggaaaaccttgtagatt (antisense TTGGGAAAACCTTGTAGATT; all phosphorothioate, sugars by position and methylation of C not given here; 2'-MOE gapmer) | at least 35%
ISIS 155110: 2′-MOE gapmer, phosphorothioate backbone, sequence tcgggacactaactgaattc (antisense TCGGGACACTAACTGAATTC; all phosphorothioate, sugars by position and methylation of C not given here; 2'-MOE gapmer) | at least 35%
ISIS 209523: 2′-MOE gapmer, phosphorothioate backbone, sequence gggccttcattatgagaggt (antisense GGGCCTTCATTATGAGAGGT; all phosphorothioate, sugars by position and methylation of C not given here; 2'-MOE gapmer) | at least 35%
